Experimental data from patent US4281012A, “[4H]-1,3-Benzodioxin-2-carboxylic acids” (Roussel Uclaf, priority 1978, dated 1981).

Columns and labels:
[1] = Acute toxicity in mice, DL50 dose; conditions: mouse, in vivo, ip, intraperitoneal, suspension in aqueous carboxymethylcellulose, observed one week
Description: The acute toxicity was determined on groups of 5 mice weighing about 18 to 22 g and the test products were intraperitoneally administered in suspension in an aqueous carboxymethylcellulose.

[2] = system: male rats of the Sprague Dawley S.P.F. strain; assay: Hypolipemiant activity in rats on sucrose- and cholesterol-rich regime, % variation of levels versus untreated controls; assay type: in vivo, rat (Sprague Dawley S.P.F.); conditions: 10 days, esophagus tube, vs untreated controls
Description: This test was effected on groups of 8 male rats of the Sprague Dawley S.P.F. strain weighing about 200 g and the animals received a regime containing 50% of saccharose and which was rich in cholesterol (1%). The rats were treated over 10 days with the test products which were administered through an esophagus tube as a suspension in water containing carboxymethylcellulose. The animals were left without food 16 hours after the last administration of the test product and then killed by an abdominal puncture and from the blood sample with sodium heparinate, the levels of triglycerides, cholesterol and total lipids were determined by the following methods.
The triglyceride level was determined by the semiautomatic technique of Kessler et al [Automation in Analytical Chemistry, 1965, p. 341] modified by Claude et al [Ann. Biol. Clin., Vol. 26 3-4 (1968), p. 451]. The cholesterol levels were determined by the technique of Levine [Symposium Technicon, Vol. I, (1967), p. 25] adapted to auto-analyzer system I. The nephelometric level of total lipids was determined semi-automatically by the method of Girard et al. [Symposium Technicon, 1970]. The variations expressed in percentages of the level of triglycerides, cholesterol and total lipids after administration of the various dosage of the test products in the treated animals as compared to the untreated controls and the results are reported in Table I.

SMILES | LD50 at 168 h [1] | % Variation of levels, Cholesterol ([2]; 5 mg/kg day) | % Variation of levels, Total Lipids ([2]; 5 mg/kg day) | % Variation of levels, Triglycerides ([2]; 5 mg/kg day) | % Variation of levels, Cholesterol ([2]; 50 mg/kg day) | % Variation of levels, Total Lipids ([2]; 50 mg/kg day) | % Variation of levels, Triglycerides ([2]; 50 mg/kg day) | % Variation of levels, Cholesterol ([2]; 2 mg/kg day) | % Variation of levels, Total Lipids ([2]; 2 mg/kg day) | % Variation of levels, Triglycerides ([2]; 2 mg/kg day)
C=CC1(c2ccccc2)OC(C(=O)OC)Oc2ccc(Cl)cc21 (single isomer, unassigned) [Example 22, methyl 6-chloro-4-phenyl-4-ethenyl-[4H]-1,3-benzodioxin-2-carboxylate] | ~700 mg/kg | -35% | -34% | -79% |  |  |  |  |  | 
COC(=O)C1Oc2ccc(OC)cc2C(C)(c2ccccc2)O1 (single isomer, unassigned) [Example 30, methyl 6-methoxy-4-methyl-4-phenyl-[4H]-1,3-benzodioxin-2-carboxylate] | > 1000 mg/kg | -43% | -41% | -33% |  |  |  |  |  | 
COC(=O)C1Oc2ccc(Cl)cc2C(Cc2ccccc2)(c2ccccc2)O1 (single isomer, unassigned) [Example 32, methyl 6-chloro-4-phenyl-4-benzyl-[4H]-1,3-benzodioxin-2-carboxylate] | > 1000 mg/kg | -45% | -41% | -11% |  |  |  |  |  | 
CCC1(CC)OC(C(=O)O)Oc2ccc(Cl)cc21 (stereo not drawn) [Example 1, 6-chloro-4,4-diethyl-[4H]-1,3-benzodioxin-2-carboxylic acid] | 200 mg/kg |  |  |  | -37% | -39% | -11% |  |  | 
CC1(C)OC(C(=O)O)Oc2ccc(Cl)cc21 (stereo not drawn) [Example 2, 6-chloro-4,4-dimethyl-[4H]-1,3-benzodioxin-2-carboxylic acid] | 450 mg/kg |  |  |  | -23% | -28% | -11% |  |  | 
COC(=O)C1Oc2ccc(Cl)cc2C(C)(c2cccc(C(F)(F)F)c2)O1 (stereo not drawn) [Example 18] | > 1000 mg/kg | -41% | -51% | -47% |  |  |  | -30% | -29% | -15%
